From patent US8722910B2, “Diyne compositions” (Evolva AG, priority 2009, dated 2014) come the findings set out here.

SMILES strings stand for the structures.

Holding throughout (test): Growth inhibition alone and combined with Amphotericin B (visual)
What all share (format): cell-based

One test relates to Candida glabrata. How it is done: (§1) Potassium (Z)-14-(furan-2-yl)tetradeca-9-en-11,13-diynoate was tested against Aspergillus fumigatus and various Candida species alone to determine antifungal activity and in various combinations with Amphotericin B to determine if any synergistic or antagonistic interactions may occur.
(§2) Amphotericin B and potassium (Z)-14-(furan-2-yl)tetradeca-9-en-11,13-diynoate were added to an in vitro culture of different fungi in various concentrations and the culture was visually inspected. If there is inhibition of growth the culture will remain optically clear, whereas growth results in a hazy culture. The results are shown in FIG. 5, where 0 means optically clear (i.e. no growth), 1 means slightly hazy, 2 means prominent decrease (at least 50%) in visible growth, 3 means slight reduction in visible growth and 4 means no reduction in visible growth.

Another test relates to Candida parapsilosis. Conditions: 2 μg/ml and lower. The method, then: as §1, §2
For another test, the system named is Aspergillus fumigatus. The method, then: as §1, §2
The subject of the next test is Candida albicans. Conditions: 2 μg/ml and lower. How it is done:
as §1, §2

As to `O=C([O-])CCCCCCC/C=C\C#CC#Cc1ccco1.[K+]` [Compound IV″, potassium (Z)-14-(furan-2-yl)tetradeca-9-en-11,13-diynoate], the “interaction with Amphotericin B” value with Candida glabrata and in the test with Aspergillus fumigatus was “Synergism was observed” each time. Further, the inhibition of growth result is recorded as “clearly inhibits growth” in the test on Candida glabrata (2 μg/ml and lower); “clearly inhibits growth” with Candida parapsilosis; “clearly inhibits growth” in the test with Candida albicans. In addition, in the test on Candida glabrata (AmphothericinB/potassium salt 250/2.5 ng/ml or 125/10 ng/ml), the “inhibition of growth by the combination” value is “clearly inhibit growth”.
